Assays:
[1] = Fluorescence standard curve of dye under cell-free conditions (fluorescent microplate reader); format: physicochemical
Protocol: A standard curve consisting of 7 concentrations of N-pentafluorobenzoyl-Rhodamine 110 (0.5 to 20 μM) in a volume of 100 μL was prepared. The fluorescence of each concentration was measured (in triplicate) using a BioTek fluorescent microplate reader, and the signal was plotted as a function of dye concentration. The N-pentafluorobenzoyl-Rhodamine 110 curve was compared to a standard curve of R110 fluorescence prepared in the same way.

[2] = test system: HL-60 cells; test: Staining of whole, live HL-60 cells with aminopeptidase substrate; format: cell-based; settings: 10 μM, 2 hours at 37° C.
Protocol: HL-60 cells (about 2×10^6) were incubated with 10 μM of N-Gly-R110-PFB for 2 hours at 37° C. in a CO2 incubator. Parallel samples were similarly incubated with the amino terminal-blocked compound, N-Cbz-Gly-R110. At the end of the incubation, the cells were harvested by centrifugation and resuspended in 50 μL of fresh medium without substrate. Aliquots of each cell suspension were placed in microslides and viewed on a Nikon inverted microscope with epifluorescent illumination.

[3] = test system: aminopeptidases; test: Cleavage of substrate by HL-60 cell lysate (aminopeptidases); format: biochemical; settings: 37° C.; for fluorescent signal after incubation with cell lysate: HL-60 cell lysate
Protocol: N-Gly-R110-PFB was incubated with a lysate made from HL-60 cells, and the amount of fluorescence was measured at various times after incubation at 37° C. Parallel samples were run using the control substrate, N-Cbz-Gly-R110-PFB.

[4] = test system: Jurkat T leukemia cells; test: Whole cell assay: cleavage of caspase-3 substrate in apoptotic Jurkat cells, flow cytometry; format: cell-based, human
Protocol: Jurkat T leukemia cells were grown in RPMI 1640 media (Life Technologies, Inc.) +10% FCS (Sigma Chemical Company) in a 5% CO2-95% humidity incubator at 37° C., and maintained at a cell density between 4 and 8×10^5 cells/ml. Cells were harvested at 200×g and resuspended at 1×10^6 cells/ml into RPMI 1640 media containing 10% FCS and 1 ml each were dispensed in 2-wells of a 6-well plate. The apoptosis inducer staurosporine was added at 0.5 μg/ml concentration and the plate was incubated for 2 hrs at 37° C. in a 5% CO2-95% humidity incubator. Cells were pelleted and incubated with 50 μM of substrate Ac-DEVD-R110-TFB (SEQ ID NO:5) for 2 hrs at 37° C. in serum-free RPMI medium. 500 μl PBS was added and samples were analyzed by flow cytometry. All flow cytometry analyses were performed on a FACScalibur (Becton Dickinson) using CellQuest analysis software.
The apoptosis inducer anti-Fas antibody (CH-11; MBL) was added at 200 ng/ml concentration and the plate was incubated for 2hrs at 37° C. in a 5% CO2-95% humidity incubator. Cells were pelleted and incubated with 50 μM of substrate Ac-DEVD-R110-TFB (SEQ ID NO:5) for 2 hrs at 37° C. in serum-free RPMI medium. 500 μl PBS was added and samples were analyzed by flow cytometry.
A pan-caspase inhibitor cbz-Val-Asp-fink(see W099/18781) was added to one of the wells. The apoptosis inducer staurosporine was added with and without the caspase inhibitor at 0.5 μg/ml concentration and the plate was incubated for 2 hrs at 37° C. in a 5% CO2-95% humidity incubator. Cells were pelleted and incubated with 50 μM of substrate Ac-DEVD-R110-TFB (SEQ ID NO:5) for 2hr at 37° C. in serum-free RPMI medium. 500 μl PBS was added and samples were analyzed by flow cytometry.

[5] = target: T1, recombinant caspase-3 (Homo sapiens, UniProt P42574); test: Cleavage of fluorogenic substrate by recombinant caspase-3, cell-free; format: biochemical
T1 sequence (P42574 29-175 limits assumed): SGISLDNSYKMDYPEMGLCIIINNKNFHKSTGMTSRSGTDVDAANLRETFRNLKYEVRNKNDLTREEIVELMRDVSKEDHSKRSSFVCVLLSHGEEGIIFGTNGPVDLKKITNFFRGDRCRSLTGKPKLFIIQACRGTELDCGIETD
T1 sequence (P42574 176-277 limits assumed): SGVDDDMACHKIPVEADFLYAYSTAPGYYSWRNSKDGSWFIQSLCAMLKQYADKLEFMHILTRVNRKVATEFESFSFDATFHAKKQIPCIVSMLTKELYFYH
Protocol: The cleavage of N-(Ac-DEVD)-N′-(2,3,4,5-tetrafluorobenzoyl)-R110 (SEQ ID NO:5) (Ac-DEVD-R110-TFB) (SEQ ID NO:5) by caspase-3 was tested in a cell-free assay using recombinant enzyme. 10 μM of substrate was incubated with recombinant caspase-3 for 3 hours at 37° C. Control reactions included one sample with no enzyme (Background value) and one sample incubated in the presence of the caspase inhibitor, Ac-DEVD-CHO (SEQ ID NO:5) (Non-specific value).

[6] = test system: HL-60 lysates; test: Cleavage of Z-DEVD-R110-PFB by HL-60 lysates; format: biochemical

In the case of `Nc1ccc2c(c1)Oc1cc(NC(=O)c3c(F)c(F)c(F)c(F)c3F)ccc1C21OC(=O)c2ccccc21` (stereo not drawn) [N-pentafluorobenzoyl-Rhodamine 110, N-Pentafluorobenzoyl-Rhodamine 110], the “fluorescence compared to Rhodamine 110” value ([1]; cell-free conditions) is reported as “weaker fluorescent dye compared to Rhodamine 110”.
For `Br.NCC(=O)Nc1ccc2c(c1)Oc1cc(NC(=O)c3c(F)c(F)c(F)c(F)c3F)ccc1C21OC(=O)c2ccccc21` (stereo not drawn) [N-Gly-R110-PFB, N-Gly-N′-pentafluorobenzoyl-Rhodamine 110 HBr], the “fluorescence of whole cells incubated with substrate” value [2] was “strong, homogeneously distributed, yellowish-green fluorescence”, the “fluorescent signal after incubation with cell lysate” value [3] was “strong fluorescent signal” and the “fluorescent signal after incubation with buffer only (no lysate)” value [3] was “very weak fluorescent signal”.
In the case of `Cl.N=c1ccc2c(-c3ccccc3C(=O)O)c3ccc(N)cc3oc-2c1` [Rhodamine 110, reference compound], the “higher fluorescence of R110 than N-pentafluorobenzoyl-Rhodamine 110” value ([1]; each concentration tested, 0.5 to 20 μM, cell-free) is reported as 20 to 50 fold.
For `CN[C@@H]1C[C@H]2O[C@@](C)([C@@H]1OC)n1c3ccccc3c3c4c(c5c6ccccc6n2c5c31)C(=O)NC4` [staurosporine], the “induction of apoptosis read out as cleavage of Ac-DEVD-R110-TFB” value ([4]; inducer at 0.5 μg/ml, 2 hrs) was “leads to cleavage of the caspase-3 substrate”.
For `O=C(CNC(=O)OCc1ccccc1)Nc1ccc2c(c1)Oc1cc(NC(=O)c3c(F)c(F)c(F)c(F)c3F)ccc1C21OC(=O)c2ccccc21` (stereo not drawn) [N-Cbz-Gly-R110-PFB, N-(Z-Gly)-N′-pentafluorobenzoyl-Rhodamine 110], the “fluorescence of whole cells incubated with substrate” value [2] was “did not fluoresce above background levels”, the “fluorescent signal after incubation with cell lysate” value [3] was “did not give a signal” and the “fluorescent signal after incubation with buffer only (no lysate)” value [3] was “did not give a signal”.
For `CC(C)[C@H](NC(=O)[C@H](CCC(=O)O)NC(=O)[C@H](CC(=O)O)NC(=O)OCc1ccccc1)C(=O)N[C@@H](CC(=O)O)C(=O)Nc1ccc2c(c1)Oc1cc(NC(=O)c3c(F)c(F)c(F)c(F)c3F)ccc1C21OC(=O)c2ccccc21` (stereo partly drawn) [Z-DEVD-R110-PFB, N-(Z-Asp-Glu-Val-Asp)-N′-pentafluorobenzoyl-Rhodamine 110], the “increase in fluorescence over the uncleaved substrate” value ([5]; recombinant caspase-3) was “greater than 10 fold” and the “cleavage by lysate from apoptotic HL-60 cells” value [6] was “readily cleaved”.
With `CC(C)[C@H](NC(=O)OCc1ccccc1)C(=O)NC(CC(=O)O)C(=O)CF` (stereo partly drawn) [cbz-Val-Asp-fink] the “inhibition of staurosporine induced cleavage of Ac-DEVD-R110-TFB in whole cells” value ([4]; staurosporine 0.5 μg/ml, 2 hrs) was “can be inhibited by the pan-caspase inhibitor”.
For `CC(=O)N[C@@H](CC(=O)O)C(=O)N[C@@H](CCC(=O)O)C(=O)N[C@H](C(=O)N[C@@H](CC(=O)O)C(=O)Nc1ccc2c(c1)Oc1cc(NC(=O)c3cc(F)c(F)c(F)c3F)ccc1C21OC(=O)c2ccccc21)C(C)C` (stereo partly drawn) [Ac-DEVD-R110-TFB, N-(Ac-Asp-Glu-Val-Asp)-N′-(2,3,4,5-tetrafluorobenzoyl)-Rhodamine 110], the “increase in fluorescence over background and non-specific values” ([5]; 10 μM substrate, recombinant caspase-3, 3 hours at 37° C.) was “roughly 50 fold”, the “cleavage of substrate under whole cell assay conditions, anti-Fas antibody induced apoptosis” value ([4]; anti-Fas antibody 200 ng/ml 2 hrs, then 50 μM substrate 2 hrs at 37° C.) was “cleavage” and the “cleavage of substrate under whole cell assay conditions, staurosporine induced apoptosis” value ([4]; staurosporine 0.5 μg/ml 2 hrs, then 50 μM substrate 2 hrs at 37° C.) was “cleavage”.
